Data published in patent publication US5470879A, “Treatment of non-insulin-dependent diabetes” (Laboratories Monal, priority 1992, dated 1995).
Where two headings read alike, the source gives them in different places.

Key:
[1] = Acute intraperitoneal toxicity in Swiss mice; type: in vivo
Protocol: The acute toxicity was determined in Swiss mice of both sexes on intraperitoneal administration of a single dose of 1 gram per kilo of 4-hydroxyisoleucine. […] The LDo (zero lethal dose) is greater than 1 gram per kilo under our experimental conditions.

[2] = Gastric intubation in fasted conscious normal dogs: blood insulin and sugar levels; type: in vivo; conditions: 9 mg/kg by gastric intubation
Protocol: (§1) In these examples, the pancreatic hormones (insulin and glucagon) were evaluated by radioimmunoassays.
(§2) Blood sugar level was assayed using a Technicon autoanalyzer by the potassium ferricyanide method.
During a complementary experiment in dogs, we investigated whether 4-hydroxyisoleucine can be active after oral administration, and whether, in this case, this substance retains its insulin-secreting property and consequently its capacity to improve glucose tolerance.
(§3) Using conscious normal dogs kept fasted for 18 hours, 4-hydroxyisoleucine is dissolved in physiological saline and administered by gastric intubation at a dose of 9 mg/kg.
Blood samples drawn from one of the two jugular veins enabled the blood insulin and sugar levels of these animals to be evaluated. […] The arrows near the top of FIGS. 4A and 4B represent the approximate time of administration of the 4-hydroxyisoleucine.

[3] = type: in vivo, Wistar rats
Protocol: as §1, §2
The results were subjected to a variance analysis followed by the multiple comparison test.
(§4) During this experiment, Wistar rats were anaesthetized and then provided with catheters in both jugular veins. One catheter enables blood samples needed for the assay of plasma glucose and plasma insulin to be taken, the other catheter is used for the intravenous injection of the test substance.

[4] = system: isolated and perfused rat pancreas; experiment: Isolated and perfused rat pancreas: insulin secretion, vascular flow, glucagon (8.3 mM glucose); conditions: for Insulin secretion: glucose alone 810 ± 83
Protocol: as §1
To carry out this test, the pancreas was completely isolated from all the other neighbouring organs and tissues (spleen, stomach, duodenum, epiploic fat) and perfused in an open circuit with a physiological solution in a perfusion chamber. This preparation has the advantage of preserving the functional and vascular integrity of the organ while depriving it of the regulatory influences (humoral or nervous) to which it is normally subjected.
In this example, the experiments were carried out in the presence of an 8.3 mM concentration of glucose. Under these conditions, the effect on insulin secretion of a perfusion of 4-hydroxyisoleucine at a concentration of 200 μM for 10 minutes was studied. […] The perfusion of the 4-hydroxyisoleucine is indicated by the rectangular box with the lines extending downwardly from opposite sides of the box, near the top of the Figure.
The amounts of insulin secreted during the 10 minutes of perfusion are shown below: […]

[5] = system: isolated islets of Langerhans of rat pancreas; experiment: Insulin secretion of isolated islets of Langerhans of rat pancreas (8.3 mM glucose, 1 hour); type: cell-based, Wistar rats
Protocol: as §1
This method, which has the advantage of necessitating only a small amount of substance, permits a direct study of the effects of the composition on pancreatic endocrine cells, especially insulin-secreting B cells, to the exclusion of any interference with the exocrine and related tissues.
The effect of different concentrations of 4-hydroxyisoleucine on insulin secretion was investigated on isolated islets of Wistar rats, incubated in the presence of 8.3 mM glucose (1.5 g/l) for 1 hour. The results obtained are recorded in FIG. 1, in which the histograms represent the insulin secretion measured over 60 minutes for each dose of 4-hydroxyisoleucine.
By way of comparison, the effects of two structural analogues of 4-hydroxyisoleucine, i.e. isoleucine and leucine, were observed under the same conditions, and it could be established that, with these two substances, the stimulatory effect on insulin secretion is apparent only with concentrations 50 to 100 times as high.

[6] = Intravenous glucose tolerance test (IVGTT) in anaesthetized normal rats fed ad libitum; type: in vivo
Protocol: as §2, §4
Still in anaesthetized normal rats previously fed ad libitum, an intravenous glucose tolerance test was carried out.
Dissolved glucose was administered intravenously at a dose of 0.3 g/kg in one of the two jugular veins of the rat. […] In FIG. 3, "o" indicates the values observed when administering glucose alone, while ".cndot." indicates the values observed during the administration of glucose plus 4-hydroxyisoleucine.

[7] = Orally induced hyperglycaemia (OGTT) in fasted conscious normal dogs; type: in vivo
Protocol: as §2, §3
Dissolved glucose was administered by gastric intubation at a dose of 1 g/kg.
In FIG. 5, "o" represents values observed upon administering glucose alone; ".cndot." represents values observed in a trial in which glucose plus 4-hydroxyisoleucine is administered. The arrow toward the top of FIG. 5 represents the point of administration of the glucose or glucose plus 4-hydroxyisoleucine. When 4-hydroxyisoleucine (9 mg/kg) is added to the glucose solution administered by gastric intubation, the blood sugar level reaches only 120 mg/dl at the 30th minute, i.e. only +31%.

[8] = 9 mg/kg I.V., -2 min (before injection)
[9] = 9 mg/kg I.V., -10 min (before injection)
[10] = 9 mg/kg I.V., -15 min (before injection)

C[C@@H]([C@H](C)O)[C@H](N)C(=O)O [4-hydroxyisoleucine]
macroscopic deleterious effect on the main organs at autopsy ([1]; 1 gram per kilo intraperitoneal, thymus, heart, lungs, liver, stomach, kidneys, adrenals, pancreas, duodenum, genital tract, bladder): does not appear to disclose any macroscopic deleterious effect
LDo (zero lethal dose) ([1]; intraperitoneal, single dose): greater than 1 gram per kilo
toxic phenomenon over 15 days ([1]; single dose 1 gram per kilo intraperitoneal): does not appear to detect any toxic phenomenon
duration of hyperinsulinaemia ([2]; fasted): 5 min
effect on blood sugar level ([2]; fasted): gradual and discrete reduction in blood sugar level
rise in blood insulin level ([2]; from the 3rd minute): +277%
effect on plasma insulin level ([3]; 9 mg/kg I.V.): immediate and particularly important increase
time after injection at which reduction in circulating glucose level becomes significant ([3]; 9 mg/kg I.V.): 15 min
Blood sugar level ([3]; 9 mg/kg I.V., 2 min): 1.26 ± 0.08 g/L
Plasma insulin ([3]; 9 mg/kg I.V., 2 min): 4.4 ± 1.1 ng/mL
Blood sugar level ([3]; 9 mg/kg I.V., 5 min): 1.18 ± 0.04 g/L
Plasma insulin ([3]; 9 mg/kg I.V., 5 min): 9.1 ± 1.0 ng/mL
Blood sugar level ([3]; 9 mg/kg I.V., 15 min): 0.94 ± 0.09 g/L
Plasma insulin ([3]; 9 mg/kg I.V., 15 min): 18.5 ± 1.5 ng/mL
Blood sugar level ([3]; 9 mg/kg I.V., 30 min): 0.99 ± 0.10 g/L
Plasma insulin ([3]; 9 mg/kg I.V., 30 min): 18.6 ± 1.5 ng/mL
Blood sugar level ([3]; 9 mg/kg I.V., 45 min): 0.99 ± 0.12 g/L
Plasma insulin ([3]; 9 mg/kg I.V., 45 min): 14.5 ± 4.8 ng/mL
Blood sugar level ([3]; 9 mg/kg I.V., 60 min): 0.94 ± 0.10 g/L
Plasma insulin ([3]; 9 mg/kg I.V., 60 min): 14.4 ± 4.8 ng/mL
Blood sugar level ([3]; 9 mg/kg I.V., 90 min): 0.89 ± 0.12 g/L
Plasma insulin ([3]; 9 mg/kg I.V., 90 min): 14.9 ± 5.2 ng/mL
Blood sugar level [3, 8]: 1.34 ± 0.07 g/L
Plasma insulin [3, 8]: 3.4 ± 1.1 ng/mL
Blood sugar level [3, 9]: 1.38 ± 0.09 g/L
Plasma insulin [3, 9]: 2.4 ± 0.1 ng/mL
Blood sugar level [3, 10]: 1.32 ± 0.09 g/L
Plasma insulin [3, 10]: 2.8 ± 0.2 ng/mL
reduction in circulating glucose level relative to the starting value ([3]; 9 mg/kg I.V., at the 90th minute): approximately 30%
side effect secondary to the injection (polypnea, tachycardia, hypoxia) ([3]; I.V. injection, anaesthetized rats): no side effect
Insulin secretion ([4]; 50 μM): 1232 ± 93 ng/10 min
Insulin secretion ([4]; 200 μM): 1520 ± 154 ng/10 min
effect on insulin secretion (time course) ([4]; 200 μM, perfusion for 10 minutes): stimulation is immediate and in two phases, and persists throughout the period of the perfusion
Insulin secretion ([4]; 500 μM): 2206 ± 213 ng/10 min
concentration dependence of stimulatory effect on insulin secretion ([4]; 50 to 500 μM): stimulatory effect increases with the 4-hydroxyisoleucine concentration
pancreatic vascular flow and level of pancreatic glucagon ([4]; during perfusion): no modification
minimal effective concentration ([5]; Rattus norvegicus, 1 h, read-out: concentration at which a stimulatory effect on insulin secretion is apparent): 200 µM
dose dependence of stimulation of insulin secretion ([5]; isolated rat islets, 8.3 mM glucose): increases slightly with the dose
mode of stimulation of insulin secretion ([5]; summary of "in vitro" tests): direct effect on the B cell of the islet of Langerhans
effect on induced hyperglycaemia ([6]; 9 mg/kg I.V. with glucose 0.3 g/kg I.V.): markedly reduced
Blood sugar level ([6]; 9 mg/kg I.V. with glucose 0.3 g/kg I.V., 3rd minute, glucose alone 282 mg/dl): 204 mg/dL
change in blood sugar level ([6]; 9 mg/kg I.V. with glucose 0.3 g/kg I.V., 3rd minute, glucose alone +112%): +58%
glucose tolerance ([6]; rat, intravenously, summary statement): improves glucose tolerance
Blood sugar level ([7]; 9 mg/kg intragastric with glucose 1 g/kg, 30th minute, glucose alone 166 mg/dl): 120 mg/dL
change in blood sugar level ([7]; 9 mg/kg intragastric with glucose 1 g/kg, 30th minute, glucose alone +85%): +31%
glucose tolerance ([7]; dog, orally, summary statement): improves glucose tolerance
